In US20250289848A1, “PEPTIDOMIMETIC INHIBITORS OF B-CATENIN/TCF PROTEIN-PROTEIN INTERACTION” (H. LEE MOFFITT CANCER CENTER AND RESEARCH INSTITUTE, INC., priority 2018, published 2025):
“Also recorded” adds a separate entry of the source.

Legend:
SW480 cells = assay: MTS cell viability assay, SW480; format: cell-based; settings: Homo sapiens, SW480, 72 h; read-out: MTs IC50 ± SD SW480
HCT116 cells = assay: MTS cell viability assay, HCT116; format: cell-based; settings: Homo sapiens, HCT-116, 72 h; read-out: MTs IC50 ± SD HCT116
MDA-MB-231 cells [1] = assay: MTS cell viability assay, MDA-MB-231; format: cell-based; settings: Homo sapiens, MDA-MB-231, 72 h; read-out: MTs IC50 ± SD MDA-MB-231
MDA-MB-468 cells = assay: MTS cell viability assay, MDA-MB-468; format: cell-based; settings: Homo sapiens, MDA-MB-468, 72 h, read-out: MTs IC50 ± SD MDA-MB-468
BT-20 cells = assay: MTS cell viability assay, BT-20; format: cell-based; settings: Homo sapiens, BT-20, 72 h; read-out: MTs IC50 ± SD BT-20
A549 cells = assay: MTS cell viability assay, A549; format: cell-based; settings: Homo sapiens, A549, 72 h; read-out: MTs IC50 ± SD A549
[2] = test system: TOPFlash luciferase reporter in β-catenin activated HEK293 cells; assay: TOPFlash luciferase reporter assay; format: cell-based; settings: 24 h treatment, wild-type Tcf4 binding sites
Experimental: (§1) FuGENE 6 (E2962, Promega) in a 96-well plate format was used for the transfection of HEK293 cells according to the manufacturer's instructions. HEK293 cells were co-transfected with 45 ng of the TOPFlash or FOPFlash reporter gene, 135 ng of pcDNA3.1-p-catenin and 20 ng of pCMV-RL normalization reporter gene. Cells were cultured in DMEM and 10% fatal bovine serum at 37° C. for 24 h, and different concentrations of inhibitors were then added. After 24 h, the luciferase reporter activity was measured using the Dual-Glo system (E2940, Promega). Normalized luciferase activity in response to the treatment with the inhibitors was compared with that obtained from the cells treated with DMSO. Experiments were performed in triplicate.

[3] = test system: FOPFlash luciferase reporter in β-catenin activated HEK293 cells; assay: FOPFlash luciferase reporter assay; format: cell-based; settings: 24 h treatment, mutant Tcf4 binding sites
Experimental: as §1

β-catenin/Tcf PPI = format: cell-based; settings: HCT116 cells, 24 h treatment
MDA-MB-231 cells [4] = assay: Scratch wound healing assay; format: cell-based, human; settings: 10 μM; 10% serum; mitomycin; 14 h
Experimental: Scratch wound healing assay. To the confluent monolayer of MDA-MB-231 cells in 24-well plates, wounds will be made by scraping a sterile 200 μL pipette tip. Cells were maintained in DMEM containing 10% FBS with 10 μg/mL mitomycin to inhibit cell proliferation. Images of wounds were taken immediately and 14 h after wounding.
(§2) Scratch wound healing and Matrigel invasion assays using TNBC MDA-MB-231 cells were conducted.

MDA-MB-231 cells [5] = assay: Matrigel invasion assay; format: cell-based, human; settings: 10 μM; 24 h
Experimental: Matrigel invasion assay. MDA-MB-231 cells (5×10^4) suspended in 200 p L starvation medium were added to the upper chamber of a Matrigel coated insert (6.5 mm diameter, […]; Corning 353097), and the insert was placed in a 24-well plate containing […] DMEM medium with 10% FBS. Inhibitors were added to both upper and the lower chambers. Invasion assays were performed for 24 h and cells were fixed with 3.7% formaldehyde. Cells were stained with crystal violet staining solution. The cells on the upper side of the insert were removed with a cotton swab. Five randomly selected fields (×10 objectives) on the lower side of the insert were photographed, and the invaded cells were counted.
as §2

[6] = test system: Wnt/β-catenin hyperactive cancer cells; assay: MTS cell viability assay, summary over cell lines; format: cell-based; settings: result in words
β-catenin/APC PPI = assay: Co-IP experiment, HCT116 cells, β-catenin/APC; settings: 24 h, concentrations sufficient to disrupt β-catenin/Tcf PPI
β-catenin/E-cadherin PPI = assay: Co-IP experiment, HCT116 cells, β-catenin/E-cadherin; settings: 24 h, concentrations sufficient to disrupt β-catenin/Tcf PPI

SMILES: NC(=O)CC[C@H](NC(=O)[C@H](Cc1nn[nH]n1)NC(=O)[C@H](Cc1ccc2ccccc2c1)NC(=O)c1cc2cc(Cl)ccc2[nH]1)C(=O)Nc1ccc(OC(F)(F)F)cc1 [Compound 55, (S)-2-((S)-2-((S)-2-(5-Chloro-1H-indole-2-carboxamido)-3-(naphthalen-2-yl)propanamido)-3-(2H-tetrazol-5-yl)propanamido)-N^1-(4-(trifluoromethoxy)phenyl)pentanediamide]
- IC50 (SW480 cells): 28.2 ± 4.63 µM
- IC50 (HCT116 cells): 63.9 ± 7.48 µM
- IC50 (MDA-MB-231 cells [1]): 34.3 ± 6.42 µM
- IC50 (MDA-MB-468 cells): 29.2 ± 4.02 µM
- IC50 (BT-20 cells): 38.4 ± 3.99 µM
- IC50 (A549 cells): 60.3 ± 10.5 µM
- TOPFlash luciferase activity (transactivation of Wnt/β-catenin signaling) [2]: inhibited
- FOPFlash luciferase reporter activity [3]: did not inhibit

SMILES: CCOC(=O)CC[C@H](NC(=O)[C@H](Cc1nn[nH]n1)NC(=O)[C@H](Cc1ccc2ccccc2c1)NC(=O)c1cc2cc(Cl)ccc2[nH]1)C(=O)Nc1ccc(OC(F)(F)F)cc1 [Compound 56, Ethyl (S)-4-((S)-2-((S)-2-(5-chloro-1H-indole-2-carboxamido)-3-(naphthalen-2-yl)propanamido)-3-(2H-tetrazol-5-yl)propanamido)-5-oxo-5-((4-(trifluoromethoxy)phenyl)amino)pentanoate]
- IC50 (SW480 cells): 14.1 ± 2.86 µM
- IC50 (HCT116 cells): 69.4 ± 7.21 µM
- IC50 (MDA-MB-231 cells [1]): 12.3 ± 2.16 µM
- IC50 (MDA-MB-468 cells): 7.25 ± 0.72 µM
- IC50 (BT-20 cells): 16.5 ± 2.23 µM
- IC50 (A549 cells): 86.4 ± 8.58 µM
- TOPFlash luciferase activity (transactivation of Wnt/β-catenin signaling) [2]: suppressed transactivation of Wnt/β-catenin signaling in dose-dependent manners; also recorded: inhibited
- FOPFlash luciferase reporter activity [3]: did not inhibit
- disruption of the β-catenin/Tcf PPI (co-IP) (β-catenin/Tcf PPI): disrupted the β-catenin/Tcf PPI; also recorded: dose-dependently inhibited
- migration of TNBC MDA-MB-231 cells (wound healing) (MDA-MB-231 cells [4]): selectively inhibited; also recorded: inhibited the migration; also recorded: effectively inhibit
- invasion of TNBC MDA-MB-231 cells (Matrigel) (MDA-MB-231 cells [5]): selectively inhibited; also recorded: inhibited invasion; also recorded: effectively inhibit
- viability of Wnt/β-catenin hyperactive cancer cells [6]: selectively inhibited
- effect on the β-catenin/APC PPI (co-IP) (β-catenin/APC PPI): without affecting; also recorded: had no effect
- effect on the β-catenin/E-cadherin PPI (co-IP) (β-catenin/E-cadherin PPI): without affecting; also recorded: had no effect
